Key:
Assay in all cases: Nanosyn kinase profiling
Assay type in all cases: biochemical
Conditions in all cases: read-out: Percentage inhibition; for inhibition at 0.1 µM: 0.1 µM inhibitor; for inhibition at 1 µM: 1 µM inhibitor
PKCθ = target: T1, PKCθ (Homo sapiens, UniProt Q04759)
T1 construct: purchased Nanosyn (enzymatic panel); SGC in-house recombinant human kinases (DSF panel); Invitrogen (ALK1-6)
Outline: (§1)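 Percent inhibition of each kinase was measured with the inhibitor at 0.1 µM and at 1 µM, as part of a 200-kinase human selectivity panel.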

FER = target: T2, FER (Homo sapiens, UniProt P16591)
T2 construct: purchased Nanosyn (enzymatic panel); SGC in-house recombinant human kinases (DSF panel); Invitrogen (ALK1-6)
Outline: as §1

IKK-ε = target: T3, IKK-ε (Homo sapiens, UniProt Q14164)
T3 construct: purchased Nanosyn (enzymatic panel); SGC in-house recombinant human kinases (DSF panel); Invitrogen (ALK1-6)
T3 sequence (Q14164 1-716): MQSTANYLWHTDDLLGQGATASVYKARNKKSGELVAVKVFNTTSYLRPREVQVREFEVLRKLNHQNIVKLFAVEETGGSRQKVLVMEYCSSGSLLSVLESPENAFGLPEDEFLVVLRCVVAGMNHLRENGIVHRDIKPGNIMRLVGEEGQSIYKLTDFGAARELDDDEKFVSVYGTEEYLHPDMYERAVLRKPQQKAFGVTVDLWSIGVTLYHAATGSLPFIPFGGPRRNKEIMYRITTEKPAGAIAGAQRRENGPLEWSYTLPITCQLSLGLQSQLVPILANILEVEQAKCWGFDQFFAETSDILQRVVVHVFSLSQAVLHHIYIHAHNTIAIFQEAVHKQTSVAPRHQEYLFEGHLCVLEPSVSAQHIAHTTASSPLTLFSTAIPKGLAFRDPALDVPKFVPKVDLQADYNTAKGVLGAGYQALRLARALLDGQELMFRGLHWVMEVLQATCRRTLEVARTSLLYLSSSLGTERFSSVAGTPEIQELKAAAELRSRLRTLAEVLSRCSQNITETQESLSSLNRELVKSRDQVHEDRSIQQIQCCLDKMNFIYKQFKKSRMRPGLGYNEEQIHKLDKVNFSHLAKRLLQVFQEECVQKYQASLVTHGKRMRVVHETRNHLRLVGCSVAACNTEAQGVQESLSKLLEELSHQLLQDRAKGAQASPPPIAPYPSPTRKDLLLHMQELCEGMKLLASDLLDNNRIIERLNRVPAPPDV
Outline: as §1

IGF1R = target: T4, IGF1R (Homo sapiens, UniProt P08069)
T4 construct: purchased Nanosyn (enzymatic panel); SGC in-house recombinant human kinases (DSF panel); Invitrogen (ALK1-6)
Outline: as §1

FLT4 = target: T5, FLT4 (Homo sapiens, UniProt P35916)
T5 construct: purchased Nanosyn (enzymatic panel); SGC in-house recombinant human kinases (DSF panel); Invitrogen (ALK1-6)
Outline: as §1

MER = target: T6, MER (Homo sapiens, UniProt Q12866)
T6 construct: purchased Nanosyn (enzymatic panel); SGC in-house recombinant human kinases (DSF panel); Invitrogen (ALK1-6)
T6 sequence (Q12866 21-999): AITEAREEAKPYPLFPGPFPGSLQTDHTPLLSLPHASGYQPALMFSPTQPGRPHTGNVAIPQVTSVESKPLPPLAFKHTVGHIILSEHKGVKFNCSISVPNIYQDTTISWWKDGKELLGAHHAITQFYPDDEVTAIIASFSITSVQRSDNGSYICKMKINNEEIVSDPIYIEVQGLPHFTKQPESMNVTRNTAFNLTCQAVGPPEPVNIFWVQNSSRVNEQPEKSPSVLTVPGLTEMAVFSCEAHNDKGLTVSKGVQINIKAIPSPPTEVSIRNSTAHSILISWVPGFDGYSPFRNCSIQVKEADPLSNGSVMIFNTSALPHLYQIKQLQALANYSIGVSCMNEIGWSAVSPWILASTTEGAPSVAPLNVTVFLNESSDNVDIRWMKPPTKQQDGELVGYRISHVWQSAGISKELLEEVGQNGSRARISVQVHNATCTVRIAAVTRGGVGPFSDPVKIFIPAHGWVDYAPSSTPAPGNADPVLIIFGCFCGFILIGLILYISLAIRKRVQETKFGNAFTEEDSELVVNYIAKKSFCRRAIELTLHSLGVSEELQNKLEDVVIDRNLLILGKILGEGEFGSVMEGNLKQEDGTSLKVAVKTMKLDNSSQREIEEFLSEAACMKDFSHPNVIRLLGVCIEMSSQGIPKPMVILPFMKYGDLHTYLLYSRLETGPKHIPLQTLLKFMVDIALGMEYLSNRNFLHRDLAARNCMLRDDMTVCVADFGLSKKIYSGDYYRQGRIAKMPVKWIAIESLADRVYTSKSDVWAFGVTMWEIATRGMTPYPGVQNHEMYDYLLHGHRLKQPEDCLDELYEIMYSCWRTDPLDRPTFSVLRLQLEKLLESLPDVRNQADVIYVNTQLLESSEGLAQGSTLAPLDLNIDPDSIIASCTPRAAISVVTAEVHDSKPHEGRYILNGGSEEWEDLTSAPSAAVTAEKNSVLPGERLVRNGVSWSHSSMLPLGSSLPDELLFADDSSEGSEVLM
Outline: as §1

MST4 = target: T7, MST4 (Homo sapiens, UniProt Q9P289)
T7 construct: purchased Nanosyn (enzymatic panel); SGC in-house recombinant human kinases (DSF panel); Invitrogen (ALK1-6)
Outline: as §1

RET = target: T8, RET (Homo sapiens, UniProt P07949)
T8 construct: purchased Nanosyn (enzymatic panel); SGC in-house recombinant human kinases (DSF panel); Invitrogen (ALK1-6)
Outline: as §1

EPHA2 = target: T9, EPHA2 (Homo sapiens, UniProt P29317)
T9 construct: purchased Nanosyn (enzymatic panel); SGC in-house recombinant human kinases (DSF panel); Invitrogen (ALK1-6)
Outline: as §1

CAMK2α = target: T10, CAMK2α (Homo sapiens, UniProt Q9UQM7)
T10 construct: purchased Nanosyn (enzymatic panel); SGC in-house recombinant human kinases (DSF panel); Invitrogen (ALK1-6)
Outline: as §1

CAMK1δ = target: T11, CAMK1δ (Homo sapiens, UniProt Q8IU85)
T11 construct: purchased Nanosyn (enzymatic panel); SGC in-house recombinant human kinases (DSF panel); Invitrogen (ALK1-6)
Outline: as §1

ERBB2 = target: T12, ERBB2 (Homo sapiens, UniProt P04626)
T12 construct: purchased Nanosyn (enzymatic panel); SGC in-house recombinant human kinases (DSF panel); Invitrogen (ALK1-6)
Outline: as §1

CDK2/cycE = target: T13, CDK2/cycE (Homo sapiens, UniProt P24941)
T13 construct: purchased Nanosyn (enzymatic panel); SGC in-house recombinant human kinases (DSF panel); Invitrogen (ALK1-6)
Outline: as §1

DYRK1A = target: T14, DYRK1A (Homo sapiens, UniProt Q13627)
T14 construct: purchased Nanosyn (enzymatic panel); SGC in-house recombinant human kinases (DSF panel); Invitrogen (ALK1-6)
Outline: as §1

P70S6KB1 = target: T15, P70S6KB1 (Homo sapiens, UniProt P23443)
T15 construct: purchased Nanosyn (enzymatic panel); SGC in-house recombinant human kinases (DSF panel); Invitrogen (ALK1-6)
Outline: as §1

T12 sequence (P04626 23-1255): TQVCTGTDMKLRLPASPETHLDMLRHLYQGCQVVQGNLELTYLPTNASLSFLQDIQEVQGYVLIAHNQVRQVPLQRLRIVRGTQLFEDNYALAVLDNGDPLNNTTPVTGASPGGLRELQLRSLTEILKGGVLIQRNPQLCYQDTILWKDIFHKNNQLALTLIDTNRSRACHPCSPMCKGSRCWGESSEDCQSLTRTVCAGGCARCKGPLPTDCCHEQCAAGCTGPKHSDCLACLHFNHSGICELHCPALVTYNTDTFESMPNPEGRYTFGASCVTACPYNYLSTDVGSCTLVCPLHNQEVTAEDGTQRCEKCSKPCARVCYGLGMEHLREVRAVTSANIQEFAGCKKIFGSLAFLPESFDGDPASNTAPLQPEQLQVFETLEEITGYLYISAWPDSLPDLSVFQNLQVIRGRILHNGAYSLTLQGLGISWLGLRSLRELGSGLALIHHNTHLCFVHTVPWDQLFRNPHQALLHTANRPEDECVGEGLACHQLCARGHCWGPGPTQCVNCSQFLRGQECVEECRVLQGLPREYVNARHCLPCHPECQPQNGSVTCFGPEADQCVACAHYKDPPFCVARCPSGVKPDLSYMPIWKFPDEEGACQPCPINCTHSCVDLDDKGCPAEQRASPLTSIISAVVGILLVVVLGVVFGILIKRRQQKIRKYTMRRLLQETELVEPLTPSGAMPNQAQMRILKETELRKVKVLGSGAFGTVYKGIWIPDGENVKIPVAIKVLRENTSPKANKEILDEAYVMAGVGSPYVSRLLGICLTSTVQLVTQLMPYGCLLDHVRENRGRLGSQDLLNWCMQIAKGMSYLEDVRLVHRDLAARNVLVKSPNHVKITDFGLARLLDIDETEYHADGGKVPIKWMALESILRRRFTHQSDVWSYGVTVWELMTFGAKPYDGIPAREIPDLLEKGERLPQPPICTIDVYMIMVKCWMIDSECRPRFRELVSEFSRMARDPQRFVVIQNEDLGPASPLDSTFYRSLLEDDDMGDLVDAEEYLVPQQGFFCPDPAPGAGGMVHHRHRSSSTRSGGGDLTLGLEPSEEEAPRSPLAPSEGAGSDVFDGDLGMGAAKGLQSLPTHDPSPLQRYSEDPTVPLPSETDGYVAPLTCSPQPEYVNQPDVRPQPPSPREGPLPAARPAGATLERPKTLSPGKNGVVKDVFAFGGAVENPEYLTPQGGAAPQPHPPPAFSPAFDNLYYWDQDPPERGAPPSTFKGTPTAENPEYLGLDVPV
T5 sequence (P35916 25-1363): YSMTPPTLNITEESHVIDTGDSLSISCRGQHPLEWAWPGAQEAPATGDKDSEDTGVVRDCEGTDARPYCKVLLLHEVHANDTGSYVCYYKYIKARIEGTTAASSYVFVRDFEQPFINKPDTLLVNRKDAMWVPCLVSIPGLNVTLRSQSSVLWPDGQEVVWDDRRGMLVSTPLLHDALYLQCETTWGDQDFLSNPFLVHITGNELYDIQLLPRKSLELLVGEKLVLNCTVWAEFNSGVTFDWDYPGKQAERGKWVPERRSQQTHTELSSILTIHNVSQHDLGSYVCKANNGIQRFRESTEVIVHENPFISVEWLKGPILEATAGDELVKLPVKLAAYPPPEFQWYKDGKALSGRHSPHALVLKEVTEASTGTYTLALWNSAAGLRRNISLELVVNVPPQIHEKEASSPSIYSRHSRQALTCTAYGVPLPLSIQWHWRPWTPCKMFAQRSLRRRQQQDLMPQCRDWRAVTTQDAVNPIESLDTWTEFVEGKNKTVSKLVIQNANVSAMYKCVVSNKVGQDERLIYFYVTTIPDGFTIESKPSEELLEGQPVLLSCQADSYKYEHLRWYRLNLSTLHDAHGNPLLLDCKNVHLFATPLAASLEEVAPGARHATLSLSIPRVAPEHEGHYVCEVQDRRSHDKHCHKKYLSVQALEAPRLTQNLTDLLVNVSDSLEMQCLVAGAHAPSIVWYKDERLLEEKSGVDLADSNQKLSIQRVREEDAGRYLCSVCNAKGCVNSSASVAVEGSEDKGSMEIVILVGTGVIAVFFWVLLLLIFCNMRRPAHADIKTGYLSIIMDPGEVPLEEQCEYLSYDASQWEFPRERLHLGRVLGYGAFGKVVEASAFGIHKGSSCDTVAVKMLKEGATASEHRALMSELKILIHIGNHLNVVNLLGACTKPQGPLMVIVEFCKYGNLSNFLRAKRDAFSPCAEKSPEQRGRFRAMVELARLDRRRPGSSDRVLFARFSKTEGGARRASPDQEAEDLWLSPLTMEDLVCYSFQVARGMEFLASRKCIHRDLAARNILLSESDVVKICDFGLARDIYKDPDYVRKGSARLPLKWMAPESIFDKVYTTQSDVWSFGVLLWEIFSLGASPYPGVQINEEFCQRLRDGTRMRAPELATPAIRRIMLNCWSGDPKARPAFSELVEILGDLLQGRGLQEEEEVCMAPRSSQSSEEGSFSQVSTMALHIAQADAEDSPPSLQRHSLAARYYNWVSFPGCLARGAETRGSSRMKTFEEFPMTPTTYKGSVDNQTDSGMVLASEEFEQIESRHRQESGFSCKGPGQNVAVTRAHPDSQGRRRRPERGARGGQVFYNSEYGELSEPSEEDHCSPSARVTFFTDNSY
T8 sequence (P07949 29-1114): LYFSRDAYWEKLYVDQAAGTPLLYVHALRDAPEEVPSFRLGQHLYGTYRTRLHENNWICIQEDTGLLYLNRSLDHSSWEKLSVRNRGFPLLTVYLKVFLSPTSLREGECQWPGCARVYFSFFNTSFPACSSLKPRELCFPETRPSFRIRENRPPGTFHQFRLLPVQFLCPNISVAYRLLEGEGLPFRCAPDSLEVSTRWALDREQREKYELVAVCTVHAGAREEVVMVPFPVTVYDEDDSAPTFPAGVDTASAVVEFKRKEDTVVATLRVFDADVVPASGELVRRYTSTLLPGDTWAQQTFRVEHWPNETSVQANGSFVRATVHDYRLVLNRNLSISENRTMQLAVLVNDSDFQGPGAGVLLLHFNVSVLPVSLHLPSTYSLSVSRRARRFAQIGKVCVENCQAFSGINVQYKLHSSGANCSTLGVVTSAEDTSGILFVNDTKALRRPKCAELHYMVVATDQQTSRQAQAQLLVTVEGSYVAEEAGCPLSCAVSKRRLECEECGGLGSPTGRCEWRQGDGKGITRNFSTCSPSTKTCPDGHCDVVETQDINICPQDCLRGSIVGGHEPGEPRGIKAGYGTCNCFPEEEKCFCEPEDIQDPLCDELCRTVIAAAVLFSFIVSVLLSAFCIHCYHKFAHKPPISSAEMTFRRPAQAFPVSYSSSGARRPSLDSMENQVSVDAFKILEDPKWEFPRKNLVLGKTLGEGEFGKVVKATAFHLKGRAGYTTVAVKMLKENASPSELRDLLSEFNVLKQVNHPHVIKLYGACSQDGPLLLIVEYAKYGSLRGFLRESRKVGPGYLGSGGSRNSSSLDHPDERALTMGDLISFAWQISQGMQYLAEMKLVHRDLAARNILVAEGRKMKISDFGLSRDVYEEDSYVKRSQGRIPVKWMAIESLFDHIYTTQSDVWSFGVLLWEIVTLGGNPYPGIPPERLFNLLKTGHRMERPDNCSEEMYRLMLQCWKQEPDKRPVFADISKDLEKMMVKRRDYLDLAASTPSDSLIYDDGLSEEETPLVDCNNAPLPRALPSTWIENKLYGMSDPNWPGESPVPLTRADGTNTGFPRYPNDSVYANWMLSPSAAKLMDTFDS
T15 sequence (P23443 whole entry): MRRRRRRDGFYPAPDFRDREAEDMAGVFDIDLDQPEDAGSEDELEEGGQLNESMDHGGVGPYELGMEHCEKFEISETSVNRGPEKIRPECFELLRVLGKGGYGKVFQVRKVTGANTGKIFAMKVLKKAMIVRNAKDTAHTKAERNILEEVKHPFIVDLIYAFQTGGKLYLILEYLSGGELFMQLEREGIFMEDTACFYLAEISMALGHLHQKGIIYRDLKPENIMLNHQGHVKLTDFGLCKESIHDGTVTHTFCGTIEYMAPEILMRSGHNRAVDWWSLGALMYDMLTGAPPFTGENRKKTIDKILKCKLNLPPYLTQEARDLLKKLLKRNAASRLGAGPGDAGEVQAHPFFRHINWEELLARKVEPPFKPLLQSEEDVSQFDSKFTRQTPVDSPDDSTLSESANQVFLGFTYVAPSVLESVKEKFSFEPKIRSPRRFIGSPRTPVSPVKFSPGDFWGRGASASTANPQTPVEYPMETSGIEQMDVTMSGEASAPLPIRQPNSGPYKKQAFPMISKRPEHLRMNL
T10 sequence (Q9UQM7 whole entry): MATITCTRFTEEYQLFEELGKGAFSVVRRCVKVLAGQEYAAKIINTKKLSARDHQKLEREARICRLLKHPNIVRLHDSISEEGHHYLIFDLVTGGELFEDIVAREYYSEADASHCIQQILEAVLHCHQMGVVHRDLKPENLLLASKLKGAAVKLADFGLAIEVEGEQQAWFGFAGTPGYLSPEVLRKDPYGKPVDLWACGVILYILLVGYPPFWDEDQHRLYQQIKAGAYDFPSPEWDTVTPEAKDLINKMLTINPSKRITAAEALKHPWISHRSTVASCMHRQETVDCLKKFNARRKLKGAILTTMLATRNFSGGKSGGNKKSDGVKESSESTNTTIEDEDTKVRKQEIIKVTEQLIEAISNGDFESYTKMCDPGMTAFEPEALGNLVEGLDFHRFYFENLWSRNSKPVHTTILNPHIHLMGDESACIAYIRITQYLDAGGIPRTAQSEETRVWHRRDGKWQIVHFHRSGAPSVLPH
T7 sequence (Q9P289 whole entry): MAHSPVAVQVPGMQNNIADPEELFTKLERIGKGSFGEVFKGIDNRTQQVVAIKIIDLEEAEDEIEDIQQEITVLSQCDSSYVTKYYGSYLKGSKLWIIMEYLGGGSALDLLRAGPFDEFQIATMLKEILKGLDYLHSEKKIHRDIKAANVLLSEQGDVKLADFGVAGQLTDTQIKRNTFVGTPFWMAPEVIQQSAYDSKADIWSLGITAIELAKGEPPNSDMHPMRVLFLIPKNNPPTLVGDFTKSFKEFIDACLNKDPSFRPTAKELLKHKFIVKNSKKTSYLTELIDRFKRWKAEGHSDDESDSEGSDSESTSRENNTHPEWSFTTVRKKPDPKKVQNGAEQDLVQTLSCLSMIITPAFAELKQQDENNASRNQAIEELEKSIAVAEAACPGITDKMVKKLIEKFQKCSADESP

Row | SMILES | inhibition at 0.1 µM (PKCθ) | inhibition at 1 µM (PKCθ) | inhibition at 0.1 µM (FER) | inhibition at 1 µM (FER) | inhibition at 0.1 µM (IKK-ε) | inhibition at 1 µM (IKK-ε) | inhibition at 0.1 µM (IGF1R) | inhibition at 1 µM (IGF1R) | inhibition at 0.1 µM (FLT4) | inhibition at 1 µM (FLT4) | inhibition at 0.1 µM (MER) | inhibition at 1 µM (MER) | inhibition at 0.1 µM (MST4) | inhibition at 1 µM (MST4) | inhibition at 0.1 µM (RET) | inhibition at 1 µM (RET) | inhibition at 0.1 µM (EPHA2) | inhibition at 1 µM (EPHA2) | inhibition at 0.1 µM (CAMK2α) | inhibition at 1 µM (CAMK2α) | further results
1 | COc1cc(-c2cc(-c3cccc(O)c3)cnc2N)cc(OC)c1OC [K02288, 3-[6-amino-5-(3,4,5-trimethoxy-phenyl)-pyridin-3-yl]-phenol] | 0% | 0.1% | 0.8% | 7.5% | -6% | -2% | -3% | -1% | 0.6% | 1.4% | 5.1% | 40% | 0.4% | 0% | 2.1% | 3.9% | -2% | 3% | -2% | -2% | inhibition at 0.1 µM (CAMK1δ): -2%; inhibition at 1 µM (CAMK1δ): -1%; inhibition at 0.1 µM (ERBB2): -5%; inhibition at 1 µM (ERBB2): -3%; inhibition at 0.1 µM (CDK2/cycE): 0.2%; inhibition at 1 µM (CDK2/cycE): 1.5%; inhibition at 0.1 µM (DYRK1A): 1.9%; inhibition at 1 µM (DYRK1A): 4.1%; inhibition at 0.1 µM (P70S6KB1): -2%; inhibition at 1 µM (P70S6KB1): -1%
2 | c1ccc2c(-c3cnn4cc(-c5ccc(N6CCNCC6)cc5)cnc34)ccnc2c1 [LDN-193189] | 1.4% | 1.3% | 2.8% | 3.7% | 7.5% | 7.4% | 4.1% | 5.4% | 3.4% | 13% | 4.4% | 10% | -1% | -5% | 4% | 16% | -2% | -3% | 0% | -8% | inhibition at 0.1 µM (CAMK1δ): 0.8%; inhibition at 1 µM (CAMK1δ): 0.9%; inhibition at 0.1 µM (ERBB2): 2.1%; inhibition at 1 µM (ERBB2): 2.1%; inhibition at 0.1 µM (CDK2/cycE): 2.8%; inhibition at 1 µM (CDK2/cycE): 5.3%; inhibition at 0.1 µM (DYRK1A): 10%; inhibition at 1 µM (DYRK1A): 53%; inhibition at 0.1 µM (P70S6KB1): 1%; inhibition at 1 µM (P70S6KB1): 0.6%

Reference: PMC3639963, “A New Class of Small Molecule Inhibitor of BMP Signaling” (PLoS ONE, 2013)
